One experiment addresses CMV-polymerase (Human cytomegalovirus (strain AD169) (HHV-5) (Human herpesvirus 5), UniProt P08546). The experiment can be described thus: biochemical.
The next experiment relates to CMV. Kind of experiment: microbe, parasite or virus in culture. Particulars: Human betaherpesvirus 5, 72 h, read-out: CMV-Luc Cellular EC50, NN-NHDF cells, MOI 1, 72 hrs. The format is cell-based.
[1] abbreviates: CMV-polymerase Biochemical IC50.
The mark [2] stands for this setting: read-out: CMV-polymerase Biochemical IC50.

Each structure is given as a SMILES string. pEC50, pIC50: −log10 of the molar value. Structures can show the parent of a compound that is named as a salt. Where two headings read alike, the source gives them in different places.

Compound `Cn1nc(C(=O)NCc2ccc(C#N)cc2)c2c1C(=O)N(CC1(S(=O)(=O)C3(C)COC3)CC1)CC2` [Example 172, N-(4-Cyanobenzyl)-1-methyl-6-((1-((3-methyloxetan-3-yl)sulfonyl)cyclopropyl)methyl)-7-oxo-4,5,6,7-tetrahydro-1H-pyrazolo[3,4-c]pyridine-3-carboxamide] showed a pIC50 on CMV-polymerase (setting [1]) of 8.30. In the experiment on CMV, the pEC50 was 7.16.
Regarding `Cn1nc(C(=O)NCc2ccc(C#N)cc2)c2c1C(=O)N(CC1(S(=O)(=O)C3(CO)COC3)CC1)CC2` [Example 173, N-(4-Cyanobenzyl)-6-((1-((3-(hydroxymethyl)oxetan-3-yl)sulfonyl)cyclopropyl)methyl)-1-methyl-7-oxo-4,5,6,7-tetrahydro-1H-pyrazolo[3,4-c]pyridine-3-carboxamide], the negative logarithm of the IC50 (pIC50) on CMV-polymerase (setting [2]) is 8.52. In addition, the pEC50 with CMV was 7.13.
The compound `Cn1nc(C(=O)NCc2ccc(C#N)cc2)c2c1C(=O)N(CC1(S(=O)(=O)C3(CN)COC3)CC1)CC2` [Example 174, 6-((1-((3-(aminomethyl)oxetan-3-yl)sulfonyl)cyclopropyl)methyl)-N-(4-cyanobenzyl)-1-methyl-7-oxo-4,5,6,7-tetrahydro-1H-pyrazolo[3,4-c]pyridine-3-carboxamide] had a pIC50 on CMV-polymerase (setting [1]) of 8.22. For the same compound, the pEC50 with CMV is 6.67.
Consider `COCC(C)(COC)S(=O)(=O)C1(CN2CCc3c(C(=O)NCc4ccc(C#N)cc4)nn(C)c3C2=O)CC1` [Example 179, N-(4-Cyanobenzyl)-6-((1-((1,3-dimethoxy-2-methylpropan-2-yl)sulfonyl)cyclopropyl)methyl)-1-methyl-7-oxo-4,5,6,7-tetrahydro-1H-pyrazolo[3,4-c]pyridine-3-carboxamide], for which the pIC50 at CMV-polymerase (setting [2]) is 8.70. Also, the pEC50 in the experiment with CMV was 7.31.
Taken in the same sequence, the figures for `Cn1nc(C(=O)NCc2ccc(C#N)cc2)c2c1C(=O)N(CC1(S(=O)(=O)C(C)(CN)CO)CC1)CC2` (centres unmarked) [Example 183, 6-((1-((1-Amino-3-hydroxy-2-methylpropan-2-yl)sulfonyl)cyclopropyl)methyl)-N-(4-cyanobenzyl)-1-methyl-7-oxo-4,5,6,7-tetrahydro-1H-pyrazolo[3,4-c]pyridine-3-carboxamide] were 8.30 and 6.66.
Taken in the same sequence, the figures for `Cn1nc(C(=O)NCc2ccc(Cl)cc2)c2c1C(=O)N(CC1(S(=O)(=O)C(C)(C)[C@@H](O)CO)CC1)CC2` [Example 190, (S)—N-(4-Chlorobenzyl)-6-((1-((3,4-dihydroxy-2-methylbutan-2-yl)sulfonyl)cyclopropyl)methyl)-1-methyl-7-oxo-4,5,6,7-tetrahydro-1H-pyrazolo[3,4-c]pyridine-3-carboxamide] were 9.00 and 7.72.
Regarding `Cn1nc(C(=O)NCc2ccc(Cl)cc2)c2c1C(=O)N(CC1(S(=O)(=O)C(C)(C)[C@H](O)CO)CC1)CC2` [Example 191, (R)—N-(4-Chlorobenzyl)-6-((1-((3,4-dihydroxy-2-methylbutan-2-yl)sulfonyl)cyclopropyl)methyl)-1-methyl-7-oxo-4,5,6,7-tetrahydro-1H-pyrazolo[3,4-c]pyridine-3-carboxamide], the pIC50 at CMV-polymerase (setting [2]) is 9.00. For the same compound, the pEC50 in the experiment with CMV was 8.30.
Taken in the same sequence, the figures for `Cn1nc(C(=O)NCc2ccc(C#N)cc2)c2c1C(=O)N(CC1(S(=O)(=O)C(C)(C)[C@@H](O)CO)CC1)CC2` [Example 192, (S)-N-(4-Cyanobenzyl)-6-((1-((3,4-dihydroxy-2-methylbutan-2-yl)sulfonyl)cyclopropyl)methyl)-1-methyl-7-oxo-4,5,6,7-tetrahydro-1H-pyrazolo[3,4-c]pyridine-3-carboxamide] were 9.00 and 7.46.
On to `Cn1nc(C(=O)NCc2ccc(C#N)cc2)c2c1C(=O)N(CC1(S(=O)(=O)C3(C(O)CN)CC3)CC1)CC2` (centres unmarked) [Example 208, 6-((1-((1-(2-Amino-1-hydroxyethyl)cyclopropyl)sulfonyl)cyclopropyl)methyl)-N-(4-cyanobenzyl)-1-methyl-7-oxo-4,5,6,7-tetrahydro-1H-pyrazolo[3,4-c]pyridine-3-carboxamide], for which the pIC50 at CMV-polymerase (setting [2]) was 9.00. Moreover, in the experiment on CMV, the negative logarithm of the EC50 (pEC50) was 7.29.
Taken in the same sequence, the figures for `Cn1nc(C(=O)NCc2ccc(Cl)cc2)c2c1C(=O)N(CC1(S(=O)(=O)C3(C(O)CN)CC3)CC1)CC2` (centres unmarked) [Example 209, 6-((1-((1-(2-Amino-1-hydroxyethyl)cyclopropyl)sulfonyl)cyclopropyl)methyl)-N-(4-chlorobenzyl)-1-methyl-7-oxo-4,5,6,7-tetrahydro-1H-pyrazolo[3,4-c]pyridine-3-carboxamide] were 9.00 and 8.00.
In the case of `Cn1nc(C(=O)NCc2ccc(C#N)cc2)c2c1C(=O)N(CC1(S(=O)(=O)C(C)(C)[C@H](N)CO)CC1)CC2` [Example 213, (R)-6-((1-((3-Amino-4-hydroxy-2-methylbutan-2-yl)sulfonyl)cyclopropyl)methyl)-N-(4-cyanobenzyl)-1-methyl-7-oxo-4,5,6,7-tetrahydro-1H-pyrazolo[3,4-c]pyridine-3-carboxamide], on CMV-polymerase (setting [1]), the pIC50 was 8.70. Moreover, the pEC50 in the experiment on CMV is 7.09.
Regarding `Cn1nc(C(=O)NCc2ccc(Cl)cc2)c2c1C(=O)N(CC1(S(=O)(=O)C(C)(C)[C@H](N)CO)CC1)CC2` [Example 214, (R)-6-((1-((3-Amino-4-hydroxy-2-methylbutan-2-yl)sulfonyl)cyclopropyl)methyl)-N-(4-chlorobenzyl)-1-methyl-7-oxo-4,5,6,7-tetrahydro-1H-pyrazolo[3,4-c]pyridine-3-carboxamide hydrochloride], the pIC50 at CMV-polymerase (setting [2]) is 8.52. Also, in the experiment on CMV, the pEC50 is 7.38.
The like results for `O=C(NCc1ccc(Cl)cc1)c1nn(CCO)c2c1CCN(CC1(S(=O)(=O)C3CC3)CC1)C2=O` [Example 218, N-(4-Chlorobenzyl)-6-((1-(cyclopropylsulfonyl)cyclopropyl)methyl)-1-(2-hydroxyethyl)-7-oxo-4,5,6,7-tetrahydro-1H-pyrazolo[3,4-c]pyridine-3-carboxamide] were, in that order, 8.22 and 7.38.
Taken in the same sequence, the figures for `CS(=O)(=O)C1(CN2CCc3c(C(=O)NCc4ccc(Cl)cc4)nn(CCO)c3C2=O)CC1` [Example 219, N-(4-Chlorobenzyl)-1-(2-hydroxyethyl)-6-((1-(methylsulfonyl)cyclopropyl)methyl)-7-oxo-4,5,6,7-tetrahydro-1H-pyrazolo[3,4-c]pyridine-3-carboxamide] were 7.52 and 6.68.
The like results for `CC(C)(CO)S(=O)(=O)C1(CN2CCc3c(C(=O)NCc4ccc(C#N)cc4)nn(CCO)c3C2=O)CC1` [Example 220, N-(4-Cyanobenzyl)-6-((1-((1-hydroxy-2-methylpropan-2-yl)sulfonyl)cyclopropyl)methyl)-1-(2-hydroxyethyl)-7-oxo-4,5,6,7-tetrahydro-1H-pyrazolo[3,4-c]pyridine-3-carboxamide] were, in that order, 9.00 and 7.31.
In the case of `CC1(S(=O)(=O)C2(CN3CCc4c(C(=O)NCc5ccc(Cl)cc5)nn(CCOCCO)c4C3=O)CC2)CC1` [Example 222, N-(4-Chlorobenzyl)-1-(2-(2-hydroxyethoxy)ethyl)-6-((1-((1-methylcyclopropyl)sulfonyl)cyclopropyl)methyl)-7-oxo-4,5,6,7-tetrahydro-1H-pyrazolo[3,4-c]pyridine-3-carboxamide], the pIC50 on CMV-polymerase (setting [1]) was 8.52. The negative-log EC50 (pEC50) with CMV was 7.48.
Taken in the same sequence, the figures for `CC1(S(=O)(=O)C2(CN3CCc4c(C(=O)NCc5ccc(Cl)cc5)nn(CCOCCN)c4C3=O)CC2)CC1` [Example 223, 1-(2-(2-Aminoethoxy)ethyl)-N-(4-chlorobenzyl)-6-((1-((1-methylcyclopropyl)sulfonyl)cyclopropyl)methyl)-7-oxo-4,5,6,7-tetrahydro-1H-pyrazolo[3,4-c]pyridine-3-carboxamide] were 8.30 and 7.31.
The like results for `CCC(=O)Cn1nc(C(=O)NCc2ccc(C#N)cc2)c2c1C(=O)N(CC1(S(=O)(=O)C3CC3)CC1)CC2` [Example 227, N-(4-Cyanobenzyl)-6-((1-(cyclopropylsulfonyl)cyclopropyl)methyl)-7-oxo-1-(2-oxobutyl)-4,5,6,7-tetrahydro-1H-pyrazolo[3,4-c]pyridine-3-carboxamide] were, in that order, 9.00 and 7.55.
For the compound `N#Cc1ccc(CNC(=O)c2nn(CC3(O)CC3)c3c2CCN(CC2(S(=O)(=O)C4CC4)CC2)C3=O)cc1` [Example 228, N-(4-Cyanobenzyl)-6-((1-(cyclopropylsulfonyl)cyclopropyl)methyl)-1-((1-hydroxycyclopropyl)methyl)-7-oxo-4,5,6,7-tetrahydro-1H-pyrazolo[3,4-c]pyridine-3-carboxamide], on CMV-polymerase (setting [1]), the pIC50 is 8.70. Moreover, the negative logarithm of the EC50 (pEC50) in the experiment with CMV was 7.29.
Taken in the same sequence, the figures for `CC(C)(O)Cn1nc(C(=O)NCc2ccc(Cl)cc2)c2c1C(=O)N(CC1(S(=O)(=O)C3CC3)CC1)CC2` [Example 229, N-(4-Chlorobenzyl)-6-((1-(cyclopropylsulfonyl)cyclopropyl)methyl)-1-(2-hydroxy-2-methylpropyl)-7-oxo-4,5,6,7-tetrahydro-1H-pyrazolo[3,4-c]pyridine-3-carboxamide] were 9.00 and 7.70.
As to `CC(C)(O)Cn1nc(C(=O)NCc2ccc(C#N)cc2)c2c1C(=O)N(CC1(S(=O)(=O)C3CC3)CC1)CC2` [Example 230, N-(4-Cyanobenzyl)-6-((1-(cyclopropylsulfonyl)cyclopropyl)methyl)-1-(2-hydroxy-2-methylpropyl)-7-oxo-4,5,6,7-tetrahydro-1H-pyrazolo[3,4-c]pyridine-3-carboxamide], on CMV-polymerase (setting [2]), the pIC50 is 9.00. Also, the pEC50 with CMV was 7.51.
The like results for `CC(C)(O)Cn1nc(C(=O)NCc2ccc(Cl)cc2)c2c1C(=O)N(CC1(S(C)(=O)=O)CC1)CC2` [Example 231, N-(4-Chlorobenzyl)-1-(2-hydroxy-2-methylpropyl)-6-((1-(methylsulfonyl)cyclopropyl)methyl)-7-oxo-4,5,6,7-tetrahydro-1H-pyrazolo[3,4-c]pyridine-3-carboxamide] were, in that order, 8.15 and 7.06.

One may read the pIC50 as the negative decadic logarithm of the IC50, by convention in mol/L. The pEC50 is the EC50 on a negative log10 scale, so that one unit is a factor of ten.

The record behind these values is patent US12338220B2, “Antiviral pyrazolopiridinone compounds” (Novartis AG, priority 2019, dated 2025).
